Data reported in ChEMBL document CHEMBL1149627, “Erythrocarpines A-E, new cytotoxic limonoids from Chisocheton erythrocarpus” (Bioorg Med Chem, 2007).
≈ marks a conversion by molar mass, not a printed value.

Tested on: P388
Experiment: Cytotoxicity against mouse P388 cells by MTT assay
Assay type: functional, cell-based

SMILES	IC50 [µg/mL]
COC(=O)C[C@H]1C(C)(C)[C@H](OC(=O)c2ccccc2)[C@@H]2C=C3C4=CC(=O)O[C@@H](c5ccoc5)[C@]4(C)CC[C@@H]3[C@@]1(C)C2=O [ERYTHROCARPINE A]	2 (≈ 3.49 µM)
COC(=O)C[C@H]1C(C)(C)[C@H](OC(=O)/C=C/c2ccccc2)[C@@H]2C=C3[C@H](CC[C@@]4(C)[C@H](c5ccoc5)OC(=O)C[C@@]34O)[C@@]1(C)C2=O [ERYTHROCARPINE C]	9.9 (≈ 16.1 µM)
COC(=O)C[C@H]1[C@@]2(C)CO[C@]3(O)[C@@H](C=C4C5=CC(=O)O[C@@H](c6ccoc6)[C@]5(C)CC[C@@H]4[C@]13C)[C@H]2OC(=O)/C=C/c1ccccc1 [ERYTHROCARPINE D]	10 (≈ 16.3 µM)
CO[C@@]12[C@H](COC(N)=O)C3=C(C(=O)C(C)=C(N)C3=O)N1C[C@@H]1N[C@@H]12 [MITOMYCIN]	0.15 (≈ 0.449 µM)
COC(=O)C[C@H]1C(C)(C)[C@H](OC(=O)c2ccccc2)[C@@H]2C=C3[C@H](CC[C@@]4(C)[C@H](c5ccoc5)OC(=O)C[C@@]34O)[C@@]1(C)C2=O [ERYTHROCARPINE B]	6 (≈ 10.2 µM)
COC(=O)C[C@H]1[C@@]2(C)CO[C@]3(O)[C@@H](C=C4[C@H](CC[C@@]5(C)[C@H](c6ccoc6)OC(=O)C[C@@]45O)[C@]13C)[C@H]2OC(=O)/C=C/c1ccccc1 [ERYTHROCARPINE E]	16 (≈ 25.3 µM)
